Each molecule was assayed against Aurora B/INCENP (Homo sapiens, UniProt Q96GD4) (assay: Determination of inhibition of AIK: Aurora B/INCENP direct fluorescence polarization (IMAP) assay). Details: 10 uM ATP, 0.8 nM Aurora B/INCENP; values given as bins; read-out: IC50 of Exemplified Compounds Against AIK B.
Assay type: biochemical

Chain of Aurora B/INCENP (Q96GD4 whole entry): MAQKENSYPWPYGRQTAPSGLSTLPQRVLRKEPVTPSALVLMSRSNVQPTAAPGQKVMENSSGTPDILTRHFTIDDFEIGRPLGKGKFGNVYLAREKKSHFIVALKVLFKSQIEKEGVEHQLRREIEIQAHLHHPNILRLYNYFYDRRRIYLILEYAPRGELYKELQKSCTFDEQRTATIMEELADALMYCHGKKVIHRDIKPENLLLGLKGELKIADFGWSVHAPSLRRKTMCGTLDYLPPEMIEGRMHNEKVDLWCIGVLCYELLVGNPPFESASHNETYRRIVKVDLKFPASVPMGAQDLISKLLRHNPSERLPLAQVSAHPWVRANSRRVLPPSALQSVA
Chain of Aurora B/INCENP (Q9NQS7 whole entry partner): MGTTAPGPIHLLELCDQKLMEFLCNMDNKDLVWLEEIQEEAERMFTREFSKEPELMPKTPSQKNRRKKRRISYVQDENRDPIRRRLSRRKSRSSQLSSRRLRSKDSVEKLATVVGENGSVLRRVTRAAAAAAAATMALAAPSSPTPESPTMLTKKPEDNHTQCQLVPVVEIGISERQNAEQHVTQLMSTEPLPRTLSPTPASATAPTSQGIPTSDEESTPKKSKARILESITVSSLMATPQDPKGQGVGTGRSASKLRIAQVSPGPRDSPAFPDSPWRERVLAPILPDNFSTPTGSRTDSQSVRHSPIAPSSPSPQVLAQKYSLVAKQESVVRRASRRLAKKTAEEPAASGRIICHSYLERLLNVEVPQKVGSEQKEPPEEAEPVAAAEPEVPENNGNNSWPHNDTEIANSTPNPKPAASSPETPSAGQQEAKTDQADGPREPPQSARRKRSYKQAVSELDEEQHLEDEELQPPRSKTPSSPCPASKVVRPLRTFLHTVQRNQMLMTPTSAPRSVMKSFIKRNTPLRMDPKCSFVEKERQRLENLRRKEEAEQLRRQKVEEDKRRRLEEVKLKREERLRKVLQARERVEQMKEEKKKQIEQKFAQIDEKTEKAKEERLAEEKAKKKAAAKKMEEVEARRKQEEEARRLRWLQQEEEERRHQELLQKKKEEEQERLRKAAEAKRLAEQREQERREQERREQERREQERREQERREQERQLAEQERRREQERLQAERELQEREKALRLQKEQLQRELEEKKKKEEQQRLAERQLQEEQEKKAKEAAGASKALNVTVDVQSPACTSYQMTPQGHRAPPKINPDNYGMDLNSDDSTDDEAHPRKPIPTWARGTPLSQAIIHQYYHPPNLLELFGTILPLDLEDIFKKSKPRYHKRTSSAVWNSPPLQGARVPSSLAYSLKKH

IC50 [nM]	Molecule
< 4	Cc1cnc2[nH]c3c(OC[C@H]4CN(CCOP(=O)(O)O)CCO4)ccc(-c4cccc(S(=O)(=O)C5CC5)c4)c3c2c1 [Compound 375, (R)-2-(2-((5-(3-(cyclopropylsulfonyl)phenyl)-3-methyl-9H-pyrido[2,3-b]indol-8-yloxy)methyl)morpholino)ethyl dihydrogen phosphate]
4 to 5.5	Cc1cnc2[nH]c3c(OC[C@H](O)CN4CCOCC4)ccc(-c4cccc(S(=O)(=O)C5CC5)c4)c3c2c1 [Compound 380, (R)-1-(5-(3-(cyclopropylsulfonyl)phenyl)-3-methyl-9H-pyrido[2,3-b]indol-8-yloxy)-3-morpholinopropan-2-ol]
< 4	Cc1cnc2[nH]c3c(OC[C@@H](CN4CCOCC4)OP(=O)(O)O)ccc(-c4cccc(S(=O)(=O)C5CC5)c4)c3c2c1 [Compound 382, (R)-1-(5-(3-(cyclopropylsulfonyl)phenyl)-3-methyl-9H-pyrido[2,3-b]indol-8-yloxy)-3-morpholinopropan-2-yl dihydrogen phosphate]
4 to 5.5	CCS(=O)(=O)c1cccc(-c2ccc(O[C@H](C)CCO)c3[nH]c4ncc(C)cc4c23)c1 [Compound 388, (R)-3-(5-(3-(ethylsulfonyl)phenyl)-3-methyl-9H-pyrido[2,3-b]indol-8-yloxy)butan-1-ol]
4 to 5.5	CCS(=O)(=O)c1cccc(-c2ccc(O[C@@H](C)CCO)c3[nH]c4ncc(C)cc4c23)c1 [Compound 389, (S)-3-(5-(3-(ethylsulfonyl)phenyl)-3-methyl-9H-pyrido[2,3-b]indol-8-yloxy)butan-1-ol]
4 to 5.5	CCS(=O)(=O)c1cccc(-c2ccc(O[C@@H](C)COP(=O)(O)O)c3[nH]c4ncc(C)cc4c23)c1 [Compound 391, (S)-2-(5-(3-(ethylsulfonyl)phenyl)-3-methyl-9H-pyrido[2,3-b]indol-8-yloxy)propyl dihydrogen phosphate]
< 4	Cc1cnc2[nH]c3c(OC[C@H](CO)CN(C)C)ccc(-c4cccc(S(=O)(=O)C5CC5)c4)c3c2c1 [Compound 401, (S)-3-(5-(3-(cyclopropylsulfonyl)phenyl)-3-methyl-9H-pyrido[2,3-b]indol-8-yloxy)-2-((dimethylamino)methyl)propan-1-ol]
< 4	Cc1cnc2[nH]c3c(OC[C@@H](CO)CN(C)C)ccc(-c4cccc(S(=O)(=O)C5CC5)c4)c3c2c1 [Compound 402, (R)-3-(5-(3-(cyclopropylsulfonyl)phenyl)-3-methyl-9H-pyrido[2,3-b]indol-8-yloxy)-2-((dimethylamino)methyl)propan-1-ol]
< 4	Cc1cnc2[nH]c3c(O)ccc(-c4cccc(S(=O)(=O)C5CC5)c4)c3c2c1 [Compound 404, 5-(3-(cyclopropylsulfonyl)phenyl)-3-methyl-9H-pyrido[2,3-b]indol-8-ol]
< 4	CCNCCCOc1ccc(-c2cccc(S(=O)(=O)C3CC3)c2)c2c1[nH]c1ncc(C)cc12 [Compound 407, 3-(5-(3-(cyclopropylsulfonyl)phenyl)-3-methyl-9H-pyrido[2,3-b]indol-8-yloxy)-N-ethylpropan-1-amine]
< 4	Cc1cnc2[nH]c3c(OCCCNCCO)ccc(-c4cccc(S(=O)(=O)C5CC5)c4)c3c2c1 [Compound 408, 2-(3-(5-(3-(cyclopropylsulfonyl)phenyl)-3-methyl-9H-pyrido[2,3-b]indol-8-yloxy)propylamino)ethanol]
> 13	CCS(=O)(=O)c1cccc(-c2ccc(OCCCn3cncn3)c3[nH]c4ncc(C)cc4c23)c1 [Compound 409, 8-(3-(1H-1,2,4-triazol-1-yl)propoxy)-5-(3-(ethylsulfonyl)phenyl)-3-methyl-9H-pyrido[2,3-b]indole]
4 to 5.5	CCS(=O)(=O)c1cccc(-c2ccc(OCc3ccncc3)c3[nH]c4ncc(C)cc4c23)c1 [Compound 411, 5-(3-(ethylsulfonyl)phenyl)-3-methyl-8-(pyridin-4-ylmethoxy)-9H-pyrido[2,3-b]indole]
8.6 to 13	CCS(=O)(=O)c1cccc(-c2ccc(OCCCc3cccnc3)c3[nH]c4ncc(C)cc4c23)c1 [Compound 414, 5-(3-(ethylsulfonyl)phenyl)-3-methyl-8-(3-(pyridin-3-yl)propoxy)-9H-pyrido[2,3-b]indole]
5.6 to 8.5	CCS(=O)(=O)c1cccc(-c2ccc(OCCCn3cnnc3)c3[nH]c4ncc(C)cc4c23)c1 [Compound 416, 8-(3-(4H-1,2,4-triazol-4-yl)propoxy)-5-(3-(ethylsulfonyl)phenyl)-3-methyl-9H-pyrido[2,3-b]indole]
> 13	CCS(=O)(=O)c1cccc(-c2ccc(OCCCn3cccc3)c3[nH]c4ncc(C)cc4c23)c1 [Compound 421, 8-(3-(1H-pyrrol-1-yl)propoxy)-5-(3-(ethylsulfonyl)phenyl)-3-methyl-9H-pyrido[2,3-b]indole]
8.6 to 13	CCS(=O)(=O)c1cccc(-c2ccc(OCC3CCCCO3)c3[nH]c4ncc(C)cc4c23)c1 (stereo not shown) [Compound 423, 5-(3-(ethylsulfonyl)phenyl)-3-methyl-8-((tetrahydro-2H-pyran-2-yl)methoxy)-9H-pyrido[2,3-b]indole]
8.6 to 13	CCN(CC)CCCOc1ccc(-c2cccc(S(=O)(=O)CC)c2)c2c1[nH]c1ncc(C)cc12 [Compound 425, N,N-diethyl-3-(5-(3-(ethylsulfonyl)phenyl)-3-methyl-9H-pyrido[2,3-b]indol-8-yloxy)propan-1-amine]
5.6 to 8.5	CCS(=O)(=O)c1cccc(-c2ccc(OCCCOC)c3[nH]c4ncc(C)cc4c23)c1 [Compound 427, 5-(3-(ethylsulfonyl)phenyl)-8-(3-methoxypropoxy)-3-methyl-9H-pyrido[2,3-b]indole]
< 4	CCS(=O)(=O)c1cccc(-c2ccc(OCc3cccc(F)n3)c3[nH]c4ncc(C)cc4c23)c1 [Compound 433, 5-(3-(ethylsulfonyl)phenyl)-8-((6-fluoropyridin-2-yl)methoxy)-3-methyl-9H-pyrido[2,3-b]indole]
> 13	CCS(=O)(=O)c1cccc(-c2ccc(OCCCN3CCOCC3)c3[nH]c4ncc(C)cc4c23)c1 [Compound 440, 4-(3-(5-(3-(ethylsulfonyl)phenyl)-3-methyl-9H-pyrido[2,3-b]indol-8-yloxy)propyl)morpholine]
< 4	Cc1cnc2[nH]c3c(OCCCN4CCC(OP(=O)(O)O)CC4)ccc(-c4cccc(S(=O)(=O)C5CC5)c4)c3c2c1 [Compound 444, 1-(3-(5-(3-(cyclopropylsulfonyl)phenyl)-3-methyl-9H-pyrido[2,3-b]indol-8-yloxy)propyl)piperidin-4-yl dihydrogen phosphate]
< 4	CCS(=O)(=O)c1cccc(-c2ccc(OCCCN3CCC(COP(=O)(O)O)CC3)c3[nH]c4ncc(C)cc4c23)c1 [Compound 449, (1-(3-(5-(3-(ethylsulfonyl)phenyl)-3-methyl-9H-pyrido[2,3-b]indol-8-yloxy)propyl)piperidin-4-yl)methyl dihydrogen phosphate]
8.6 to 13	CCS(=O)(=O)c1cccc(-c2cc(C(=O)NC3CCNCC3)c(C)c3[nH]c4ncc(C)cc4c23)c1 [Compound 451, 5-(3-(ethylsulfonyl)phenyl)-3,8-dimethyl-N-(piperidin-4-yl)-9H-pyrido[2,3-b]indole-7-carboxamide]
8.6 to 13	CCS(=O)(=O)c1cccc(-c2cc(C(=O)N3CCC(CCO)CC3)c(C)c3[nH]c4ncc(C)cc4c23)c1 [Compound 454, (5-(3-(ethylsulfonyl)phenyl)-3,8-dimethyl-9H-pyrido[2,3-b]indol-7-yl)(4-(2-hydroxyethyl)piperidin-1-yl)methanone]
5.6 to 8.5	CCS(=O)(=O)c1cccc(-c2cc(C(=O)NC3CCN(CCO)CC3)c(C)c3[nH]c4ncc(C)cc4c23)c1 [Compound 456, 5-(3-(ethylsulfonyl)phenyl)-N-(1-(2-hydroxyethyl)piperidin-4-yl)-3,8-dimethyl-9H-pyrido[2,3-b]indole-7-carboxamide]
5.6 to 8.5	CCS(=O)(=O)c1cccc(-c2c(Cl)cnc3[nH]c4c(OC)cccc4c23)c1 [Compound 464, 3-chloro-4-(3-(ethylsulfonyl)phenyl)-8-methoxy-9H-pyrido[2,3-b]indole]
< 4	(3-chloro-5-(3-(ethylsulfonyl)phenyl)-9H-pyrido[2,3-b]indol-8-ol [Compound 219]

Source: US20090312288A1 (TAKEDA PHARMACEUTICAL COMPANY LIMITED, priority 2008, published 2009)
